Reference: article PMC4774911, “Biochemical Screening of Five Protein Kinases from Plasmodium falciparum against 14,000 Cell-Active Compounds” (PLoS ONE, 2016)
Like-named read-outs stand apart in the source and are kept apart here.

Assays:
[1] = molecular target: T1, Plasmodium falciparum protein kinase 6 (PK6) (Plasmodium falciparum, UniProt Q8IDW1); assay: biochemical; settings: hits below 1 uM; read-out: PK6 IC50
T1 construct: 6-Histidine (N); made in house
T1 sequence (Q8IDW1 1-305): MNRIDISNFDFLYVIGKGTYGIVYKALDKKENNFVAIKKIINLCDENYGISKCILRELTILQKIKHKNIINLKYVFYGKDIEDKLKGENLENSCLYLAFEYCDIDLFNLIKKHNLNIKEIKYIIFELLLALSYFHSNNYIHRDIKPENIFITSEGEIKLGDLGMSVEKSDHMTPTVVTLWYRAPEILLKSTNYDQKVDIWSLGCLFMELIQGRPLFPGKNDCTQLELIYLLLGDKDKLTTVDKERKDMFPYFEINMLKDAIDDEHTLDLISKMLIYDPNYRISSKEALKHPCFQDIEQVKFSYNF

HepG2 cells = settings: Nature 2010, cited from earlier work
P. falciparum 3D7 cells = settings: Nature 2010, cited from earlier work
DD2 [2] = system: DD2; set-up: method as in F.J. Gamo et al., Nature 2010; settings: downloaded from ChEMBL, ref F.J. Gamo et al., Nature 2010; cited from earlier work
3D7 PFLDH [3] = system: 3D7 PFLDH; set-up: method as in F.J. Gamo et al., Nature 2010; concentration or dose not given beside the values; settings: downloaded from ChEMBL, ref F.J. Gamo et al., Nature 2010; cited from earlier work
[4] = molecular target: T2, Plasmodium falciparum calcium-dependent protein kinase 1 (CDPK1) (Plasmodium falciparum, UniProt P62344); assay: CDPK1 Kinase-Glo ATP-consumption screen and dose-response; type: biochemical; settings: hits below 1 uM; read-out: CDPK1 IC50
T2 construct: 6-Histidine (N); made in house
Protocol: Biochemical assays were performed in white 384-well plates (Nunc). Liquid transfers were done manually with 8-channel pipets. Compounds were initially tested in a single-point screen (final concentration 1 μM). […] The catalytic activity of each kinase was considered proportional to ATP consumed, as determined from measurements of residual [ATP] with the luciferase-based reagent Kinase-Glo (Promega) following incubation. Luminescence (proportional to residual [ATP]) was measured on the plate readers FLx800 (BioTek Instruments, Winooski, VT, USA) and MicroBeta^2 (PerkinElmer, Waltham, MA, USA). Incubation times were chosen to ensure near-complete ATP depletion in the absence of inhibition, thus maximizing the difference in signal between inhibited and uninhibited wells.
40 μM Syntide-2 was used as a substrate; BKI-1 [14] was used as a control inhibitor, while reaction mixtures lacking Syntide-2 were included as an additional negative control. Incubation time was 90 minutes. Reactions were terminated by adding excess EGTA (5 mM), which sequesters Ca^2+ and halts calcium-dependent kinase activity.

DD2 [5] = system: DD2; set-up: method as in F.J. Gamo et al., Nature 2010; settings: P. falciparum Dd2; downloaded from ChEMBL ref F.J. Gamo et al., Nature 2010; cited from earlier work
3D7 PFLDH [6] = system: 3D7 PFLDH; set-up: method as in F.J. Gamo et al., Nature 2010; settings: downloaded from ChEMBL ref F.J. Gamo et al., Nature 2010; cited from earlier work
[7] = HepG2, downloaded from ChEMBL, ref F.J. Gamo et al.
[8] = 3D7, downloaded from ChEMBL, ref F.J. Gamo et al.
[9] = HepG2 cells, downloaded from ChEMBL ref F.J. Gamo et al.
[10] = P. falciparum 3D7, downloaded from ChEMBL ref F.J. Gamo et al.

T2 sequence (P62344 whole entry): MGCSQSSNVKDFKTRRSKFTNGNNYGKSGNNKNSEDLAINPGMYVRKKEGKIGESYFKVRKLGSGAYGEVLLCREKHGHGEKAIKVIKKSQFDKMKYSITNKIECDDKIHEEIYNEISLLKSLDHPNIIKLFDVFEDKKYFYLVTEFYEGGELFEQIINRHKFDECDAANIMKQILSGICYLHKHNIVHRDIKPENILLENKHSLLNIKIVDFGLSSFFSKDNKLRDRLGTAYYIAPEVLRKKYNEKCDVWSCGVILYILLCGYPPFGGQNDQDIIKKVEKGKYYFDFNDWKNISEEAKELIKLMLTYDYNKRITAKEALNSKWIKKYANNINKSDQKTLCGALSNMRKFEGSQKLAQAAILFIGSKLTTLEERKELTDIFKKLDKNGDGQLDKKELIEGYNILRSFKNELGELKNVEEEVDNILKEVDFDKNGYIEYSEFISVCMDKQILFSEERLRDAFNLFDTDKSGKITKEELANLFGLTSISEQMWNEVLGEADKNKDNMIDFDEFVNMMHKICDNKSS

IC50 [1] | IC50 [4] | Compound | PCT_INHIB_HEPG2 (HepG2 cells; [7]) | PCT_IHB_3D7 (P. falciparum 3D7 cells; [8]) | pXC50_3D7 (P. falciparum 3D7 cells; [8]) | PCT_INHB_DD2 (DD2 [2]) | PCT_INHIB_3D7_PFLDH (3D7 PFLDH [3]) | PCT_INHIB_HEPG2 (HepG2 cells; [9]) | PCT_IHB_3D7 (P. falciparum 3D7 cells; [10]) | pXC50_3D7 (P. falciparum 3D7 cells; [10]) | PCT_INHB_DD2 (DD2 [5]) | PCT_INHIB_3D7_PFLDH (3D7 PFLDH [6])
 | 49 nM | CNCC(C)(C)c1nc(-c2ccc(Cl)c(O)c2)c(-c2ccncc2)[nH]1.Cl [TCMDC-140762] |  |  |  |  |  | 46 | 98 | 6.133 | 96 | 0
 | 425 nM | CC(C)(CNC(=O)C1CCN(Cc2ccoc2)CC1)c1nc(-c2ccc(Cl)c(O)c2)c(-c2ccncc2)[nH]1.Cl [TCMDC-140954] |  |  |  |  |  | 0 | 93 | 6.062 | 66 | 0
 | 7.49 nM | CC(C)(CN)c1nc(-c2ccc(Cl)c(O)c2)c(-c2ccnc(N)n2)[nH]1 [TCMDC-141019] |  |  |  |  |  | 34 | 95 | 6.0083 | 95 | 0
 | 179 nM | CC(C)(CNC(=O)[C@H]1CCCN1)c1nc(-c2ccc(Cl)c(O)c2)c(-c2ccncc2)[nH]1.Cl [TCMDC-141060] |  |  |  |  |  | 0 | 86 | 5.895 | 95 | 0
 | 164 nM | CC(C)(CNC(=O)[C@H]1CCCCN1)c1nc(-c2ccc(Cl)c(O)c2)c(-c2ccncc2)[nH]1.Cl [TCMDC-141070] |  |  |  |  |  | 6 | 98 | 6.139 | 98 | 0
 | 192 nM | CC(C)(CNC(=O)[C@@H]1CCCCN1)c1nc(-c2ccc(Cl)c(O)c2)c(-c2ccncc2)[nH]1.Cl [TCMDC-141079] |  |  |  |  |  | 0 | 97 | 6.075 | 96 | 0
 | 347 nM | CC(C)(CNC(=O)C1CCN(Cc2ccc(Cl)cc2)CC1)c1nc(-c2ccc(Cl)c(O)c2)c(-c2ccncc2)[nH]1.Cl [TCMDC-141138] |  |  |  |  |  | 36 | 100 | 6.206 | 83 | 0
 | 755 nM | CC(C)(CNCCOc1ccc(Cl)cc1)c1nc(-c2ccnc(N)n2)c(-c2ccc(Cl)c(O)c2)[nH]1.Cl [TCMDC-141161] |  |  |  |  |  | 45 | 97 | 6.079 | 19 | 0
 | 353 nM | CC(C)(CNCc1ccc(C(F)(F)F)cc1)c1nc(-c2ccnc(N)n2)c(-c2ccc(Cl)c(O)c2)[nH]1.Cl [TCMDC-141162] |  |  |  |  |  | 32 | 100 | 6.817 | 37 | 0
 | 469 nM | CC(C)(CNCc1ccc(F)c(F)c1)c1nc(-c2ccnc(N)n2)c(-c2ccc(Cl)c(O)c2)[nH]1.Cl [TCMDC-141163] |  |  |  |  |  | 41 | 99 | 6.131 | 79 | 0
 | 168 nM | CN(C)CCOc1ccc(-c2cc(-c3ccc(Cl)c(O)c3)c(-c3ccnc(N)n3)o2)cc1 [TCMDC-141332] |  |  |  |  |  | 43 | 100 | 5.879 | 95 | 2
 | 684 nM | CN(C)CCOc1ccc(-c2cc(-c3ccnc(N)n3)c(-c3ccc(Cl)c(O)c3)o2)cc1 [TCMDC-141338] |  |  |  |  |  | 14 | 100 | 6.01 | 91 | 5

Second part, the compound before the results:

Compound | IC50 [1] | IC50 [4] | PCT_INHIB_HEPG2 (HepG2 cells; [7]) | PCT_IHB_3D7 (P. falciparum 3D7 cells; [8]) | pXC50_3D7 (P. falciparum 3D7 cells; [8]) | PCT_INHB_DD2 (DD2 [2]) | PCT_INHIB_3D7_PFLDH (3D7 PFLDH [3]) | PCT_INHIB_HEPG2 (HepG2 cells; [9]) | PCT_IHB_3D7 (P. falciparum 3D7 cells; [10]) | pXC50_3D7 (P. falciparum 3D7 cells; [10]) | PCT_INHB_DD2 (DD2 [5]) | PCT_INHIB_3D7_PFLDH (3D7 PFLDH [6])
CS(=O)(=O)Cc1ccc(Nc2ncc(Cl)c(Nc3cccnc3C(N)=O)n2)cc1.Cl [TCMDC-134165] | 691 nM |  | 54% | 97% | 6.062 | 97% | 0% |  |  |  |  | 
CS(=O)(=O)Cc1cccc(Nc2ncc(Cl)c(Nc3cccnc3C(N)=O)n2)c1.Cl [TCMDC-134166] | 74 nM |  | 56% | 96% | 6.775 | 97% | 0% |  |  |  |  | 
CC(=O)Nc1ccc(Nc2ncc([N+](=O)[O-])c(Nc3ccccc3C(N)=O)n2)cc1.Cl [TCMDC-138731] | 128 nM |  | 42% | 98% | 6.437 | 97% | 2% |  |  |  |  | 
COc1ccc(C(=O)NCC(C)(C)c2nc(-c3ccc(Cl)c(O)c3)c(-c3ccncc3)[nH]2)cc1OCCN(C(C)C)C(C)C.Cl [TCMDC-140736] |  | 387 nM |  |  |  |  |  | 62 | 100 | 6.192 | 96 | 4
CC(C)(CNC(=O)C1CCN(CCOCc2ccccc2)CC1)c1nc(-c2ccc(Cl)c(O)c2)c(-c2ccncc2)[nH]1.Cl [TCMDC-141122] |  | 734 nM |  |  |  |  |  | 11 | 100 | 6.208 | 18 | 0
CC(C)(CNC(=O)C1CCN(CCOc2ccc(Cl)cc2)CC1)c1nc(-c2ccc(Cl)c(O)c2)c(-c2ccncc2)[nH]1.Cl [TCMDC-141124] |  | 471 nM |  |  |  |  |  | 40 | 100 | 6.149 | 5 | 7
CC(C)(CNC(=O)C1CCN(CCOc2ccc(F)c(F)c2)CC1)c1nc(-c2ccc(Cl)c(O)c2)c(-c2ccncc2)[nH]1.Cl [TCMDC-141136] |  | 664 nM |  |  |  |  |  | 41 | 100 | 6.5 | 19 | 0
Cl.Oc1cc(-c2nc(C3(CNCc4ccc(Cl)cc4)CCCCC3)[nH]c2-c2ccncc2)ccc1Cl [TCMDC-141155] |  | 846 nM |  |  |  |  |  | 35 | 100 | 6.903 | 99 | 2
